For experiment [1], the system named is MCF7. As to the kind of experiment: Cytotoxicity against Homo sapiens (human) MCF7 cells assessed as cell viability at 3.125 ug/ml after 48 hr by MTT assay. To be noted: MCF7, 48 h, read-out: Activity. The format is functional. (Formazan colour is commonly taken as a measure of viable cells.)
In experiment [2] the test system is MCF7. Kind of experiment: Cytotoxicity against Homo sapiens (human) MCF7 cells assessed as cell viability at 25 ug/ml after 48 hr by MTT assay. The format is functional. To be noted: MCF7, 48 h, read-out: Activity.
A short description of experiment [3]: Cytotoxicity against Homo sapiens (human) HCT cells assessed as cell viability at 25 ug/ml after 48 hr by MTT assay. The format is functional. The conditions noted are these: read-out: Activity.
Experiment [4] relates to MCF7. Kind of experiment: Cytotoxicity against Homo sapiens (human) MCF7 cells assessed as cell viability at 6.25 ug/ml after 48 hr by MTT assay. To be noted: MCF7, 48 h, read-out: Activity. It is filed as functional.
A short description of experiment [5]: Cytotoxicity against Homo sapiens (human) HCT cells assessed as cell viability at 3.125 ug/ml after 48 hr by MTT assay. It is filed as functional. To be noted: read-out: Activity.
Experiment [6] deals with MCF7. Kind of experiment: Cytotoxicity against Homo sapiens (human) MCF7 cells after 48 hr by MTT assay. The conditions noted are these: MCF7, 48 h. It is filed as functional, cell-based.
In experiment [7] the test system is HepG2. As to the kind of experiment: Cytotoxicity against Homo sapiens (human) HepG2 cells assessed as cell viability at 3.125 ug/ml after 48 hr by MTT assay. The format is functional. The conditions noted are these: HepG2, 48 h, read-out: Activity.
The nature of experiment [8]: Cytotoxicity against Homo sapiens (human) HCT cells assessed as cell viability at 12.5 ug/ml after 48 hr by MTT assay. The format is functional. The conditions noted are these: read-out: Activity.
The subject of experiment [9] is HepG2. Kind of experiment: Cytotoxicity against Homo sapiens (human) HepG2 cells assessed as cell viability at 1.56 ug/ml after 48 hr by MTT assay. It is filed as functional. The conditions noted are these: HepG2, 48 h, read-out: Activity.
The nature of experiment [10]: Cytotoxicity against Homo sapiens (human) HCT cells after 48 hr by MTT assay. The format is functional, cell-based.
Experiment [11] concerns HepG2. As to the kind of experiment: Cytotoxicity against Homo sapiens (human) HepG2 cells assessed as cell viability at 6.25 ug/ml after 48 hr by MTT assay. The format is functional. The conditions noted are these: HepG2, 48 h, read-out: Activity.
A short description of experiment [12]: Cytotoxicity against Homo sapiens (human) HCT cells assessed as cell viability at 1.56 ug/ml after 48 hr by MTT assay. The format is functional. To be noted: read-out: Activity.
In experiment [13] the test system is HepG2. As to the kind of experiment: Cytotoxicity against Homo sapiens (human) HepG2 cells assessed as cell viability at 50 ug/ml after 48 hr by MTT assay. The conditions noted are these: HepG2, 48 h, read-out: Activity. It is filed as functional.
Experiment [14] concerns MCF7. As to the kind of experiment: Cytotoxicity against Homo sapiens (human) MCF7 cells assessed as cell viability at 1.56 ug/ml after 48 hr by MTT assay. It is filed as functional. The conditions noted are these: MCF7, 48 h, read-out: Activity.
The test system of experiment [15] is HepG2. As to the kind of experiment: Cytotoxicity against Homo sapiens (human) HepG2 cells assessed as cell viability at 12.5 ug/ml after 48 hr by MTT assay. The format is functional. The conditions noted are these: HepG2, 48 h, read-out: Activity.
The nature of experiment [16]: Cytotoxicity against Homo sapiens (human) HCT cells assessed as cell viability at 50 ug/ml after 48 hr by MTT assay. The format is functional. The conditions noted are these: read-out: Activity.
For experiment [17], the system named is MCF7. Kind of experiment: Cytotoxicity against Homo sapiens (human) MCF7 cells assessed as cell viability at 12.5 ug/ml after 48 hr by MTT assay. The format is functional. To be noted: MCF7, 48 h, read-out: Activity.
Experiment [18] concerns HepG2. Kind of experiment: Cytotoxicity against Homo sapiens (human) HepG2 cells after 48 hr by MTT assay. The format is functional, cell-based. To be noted: HepG2, 48 h.
Experiment [19] has as its system HepG2. As to the kind of experiment: Cytotoxicity against Homo sapiens (human) HepG2 cells assessed as cell viability at 25 ug/ml after 48 hr by MTT assay. It is filed as functional. To be noted: HepG2, 48 h, read-out: Activity.
Experiment [20] relates to MCF7. As to the kind of experiment: Cytotoxicity against Homo sapiens (human) MCF7 cells assessed as cell viability at 50 ug/ml after 48 hr by MTT assay. The format is functional. To be noted: MCF7, 48 h, read-out: Activity.
Experiment [21] can be described thus: Cytotoxicity against Homo sapiens (human) HCT cells assessed as cell viability at 6.25 ug/ml after 48 hr by MTT assay. It is filed as functional. The conditions noted are these: read-out: Activity.

In brackets after ≈: the same amount, converted by molar mass.

As usually defined, the IC50 is the concentration that inhibits the measured activity by half. Read a low IC50 as inhibition by little substance. Consider `CCOC(=O)C1=C(N)Oc2c(ccc3ccc(/C=C/c4ccc(F)cc4)nc23)C1c1ccc(Cl)cc1` (stereo unspecified), for which the viability at 3.125 µg/mL in [1] was determined as 92.1%; in experiment [5] it was 80.6%; in [7], 96.4%. Besides, the viability at 25 µg/mL in [2] was determined as 61.2%; in experiment [3] it was 51.3%; in experiment [19], 69%. Besides, the viability at 6.25 µg/mL was 84.7% in [4], 85.1% in experiment [11] and 73.1% in experiment [21]. In addition, the half-inhibitory concentration (IC50) was 37.9 µg/mL (≈ 75.7 µM) in experiment [6], 26.2 µg/mL (≈ 52.3 µM) in [10] and 47.5 µg/mL (≈ 94.8 µM) in experiment [18]. For the same molecule, the viability at 12.5 µg/mL in experiment [8] amounted to 69.5%; in experiment [15], 79.4%; in [17], 73.5%. Further, the viability at 1.56 µg/mL came out at 98.9% in experiment [9], 98.9% in experiment [12] and 98.5% in experiment [14]. Moreover, the viability at 50 µg/mL in [13] came to 45.2%; in experiment [16], 19.8%; in experiment [20] it was 34.6%.

Consider `CCOC(=O)C1=C(N)Oc2c(ccc3ccc(/C=C/c4ccc(F)cc4)nc23)C1c1ccc(Br)cc1` (stereo unspecified), for which the results for the viability at 3.125 µg/mL in experiment [1], in experiment [5] and in experiment [7] were 93.9%, 98.5% and 94.6%, respectively. Moreover, the figures for the viability at 25 µg/mL in experiment [2], in experiment [3] and in experiment [19] were 67%, 53.7% and 62.9%, respectively. The figures for the viability at 6.25 µg/mL in [4], in [11] and in [21] were 85.5%, 83.3% and 84.9%, respectively. In addition, the half-inhibitory concentration (IC50) in experiment [6] came out at 38.4 µg/mL (≈ 70.4 µM); in experiment [10], 26.1 µg/mL (≈ 47.9 µM); in experiment [18], 37.1 µg/mL (≈ 68 µM). Also, the viability at 12.5 µg/mL in experiment [8] worked out at 78.7%; in experiment [15], 76.4%; in experiment [17], 74.6%. In addition, the results for the viability at 1.56 µg/mL in experiment [9], in [12] and in [14] were 97.1%, 100% and 99.3%, respectively. Moreover, the viability at 50 µg/mL turned out to be 34.6% in [13], 17.4% in experiment [16] and 37.6% in [20].

`CCOC(=O)C1=C(N)Oc2c(ccc3ccc(/C=C/c4ccc(Br)cc4)nc23)C1c1ccc(Cl)cc1` (stereo unspecified): the viability at 3.125 µg/mL in experiment [1] turned out to be 57.9%; in experiment [5], 66.2%; in experiment [7] it was 49.6%. Besides, the viability at 25 µg/mL was determined as 31% in [2], 24.7% in experiment [3] and 22.9% in experiment [19]. The viability at 6.25 µg/mL in experiment [4] turned out to be 45.5%; in [11], 39.3%; in [21], 48.1%. In addition, the results for the IC50 in experiment [6], in experiment [10] and in experiment [18] were 5.4 µg/mL (≈ 9.61 µM), 6.1 µg/mL (≈ 10.9 µM) and 3.1 µg/mL (≈ 5.52 µM), respectively. Besides, the viability at 12.5 µg/mL in experiment [8] amounted to 34.4%; in experiment [15], 36.4%; in [17] it was 41.6%. For the same molecule, the viability at 1.56 µg/mL stood at 72.1% in experiment [9], 72.1% in [12] and 69.4% in experiment [14]. The viability at 50 µg/mL in [13] turned out to be 14.6%; in [16], 17.6%; in [20] it was 25.6%.

In the case of `CCOC(=O)C1=C(N)Oc2c(ccc3ccc(/C=C/c4ccc(Cl)cc4)nc23)C1c1ccc(Br)cc1` (stereo unspecified), the viability at 3.125 µg/mL in experiment [1] worked out at 76%; in [5], 74.3%; in experiment [7] it was 76.3%. Also, the viability at 25 µg/mL in experiment [2] came to 37.9%; in experiment [3], 45.8%; in experiment [19], 53.4%. For the same molecule, the viability at 6.25 µg/mL in experiment [4] worked out at 63.5%; in experiment [11] it was 69.7%; in experiment [21] it was 70.4%. Besides, the IC50 is 10.3 µg/mL (≈ 18.3 µM) in [6], 20.4 µg/mL (≈ 36.3 µM) in [10] and 28.6 µg/mL (≈ 50.9 µM) in [18]. The viability at 12.5 µg/mL in [8] was determined as 61.3%; in experiment [15], 61.9%; in [17], 45.6%. Besides, the results for the viability at 1.56 µg/mL in experiment [9], in [12] and in experiment [14] were 89.4%, 82.9% and 80.9%, respectively. In addition, the viability at 50 µg/mL is 39.8% in experiment [13], 30.7% in [16] and 29.7% in experiment [20].

For the molecule `CCOC(=O)C1=C(N)Oc2c(ccc3ccc(/C=C/c4ccc(Br)cc4)nc23)C1c1ccc(Br)cc1` (stereo unspecified), the viability at 3.125 µg/mL in [1] worked out at 45.5%; in experiment [5], 76.6%; in experiment [7], 61%. Further, the figures for the viability at 25 µg/mL in [2], in experiment [3] and in experiment [19] were 17.9%, 31.4% and 36.1%, respectively. Further, the viability at 6.25 µg/mL was 31.6% in experiment [4], 48.6% in [11] and 62.8% in [21]. The IC50 in [6] stood at 2.4 µg/mL (≈ 3.96 µM); in [10] it was 12.8 µg/mL (≈ 21.1 µM); in experiment [18] it was 6.1 µg/mL (≈ 10.1 µM). Moreover, the values for the viability at 12.5 µg/mL in experiment [8], in experiment [15] and in experiment [17] were 52.2%, 42.2% and 23.8%, respectively. Further, the values for the viability at 1.56 µg/mL in experiment [9], in experiment [12] and in [14] were 79.6%, 86% and 62.3%, respectively. Besides, the results for the viability at 50 µg/mL in experiment [13], in [16] and in experiment [20] were 23.4%, 26% and 13%, respectively.

As to `CCOC(=O)C1=C(N)Oc2c(ccc3ccc(/C=C/c4ccc(Cl)cc4)nc23)C1c1ccc(Cl)cc1` (stereo unspecified), the viability at 3.125 µg/mL in experiment [1] stood at 67.8%; in [5], 69.3%; in [7], 65.3%. The viability at 25 µg/mL in experiment [2] was 34.6%; in experiment [3] it was 20.4%; in experiment [19], 37.9%. In addition, the results for the viability at 6.25 µg/mL in [4], in [11] and in experiment [21] were 47.2%, 53% and 64.1%, respectively. Besides, the IC50 in experiment [6] amounted to 5.5 µg/mL (≈ 10.6 µM); in experiment [10], 13 µg/mL (≈ 25.1 µM); in experiment [18] it was 7.9 µg/mL (≈ 15.3 µM). Moreover, the viability at 12.5 µg/mL worked out at 54.3% in experiment [8], 45.6% in [15] and 41.6% in experiment [17]. Also, the viability at 1.56 µg/mL was determined as 81.9% in experiment [9], 78.6% in experiment [12] and 78.1% in experiment [14]. Besides, the viability at 50 µg/mL in [13] is 28.1%; in experiment [16], 14.1%; in [20], 27.2%.
